Data from patent publication US20030105595A1, “Chi square tests for gene expression” (priority 2001, published 2003).

Columns and labels:
Experiment in all cases: multi-sample expression analysis, band intensity
Type in all cases: in vivo
Settings in all cases: Pooled
band b1i0_53.0 = tested on: band b1i0_53.0
Description: (§1) To practice the invention, one skilled in the art obtains a source of biological samples, as well as expression information about the biological samples, i.e., expression information relative to one or more genes or polypeptides encoded therein. Data is collected for a particular phenotype appearing within a given population under study, whereby expression of that phenotype is to be determined within the biological sample under study. The phenotype is correlated to a specific genotype, which is then represented as a band with a given intentity, thus indicative of gene expression levels, and is then compared to control samples. Alternatively, the response of a gene to dosage with one or more drugs is determined by band intensity. The standard deviation from the mean (StdDev) is calculated for the control samples, and is fit to functional form in the following equation: […]
(§2) A multi-sample expression analysis was run using the program described in Example 1. For each drug run, only runs for genes producing bands with a p-value<10^−5 in at least 2 of the following 3 comparisons were selected: low dose versus vehicle, high dose versus vehicle and low dose versus high dose. […] Since clusters found using all 13K bands included some of the best 2K bands, it was concluded that no essential signal was lost (see FIGS. 3 and 4). […] A comparison using the same analytic tests on only the best 2K bands. It can be seen that the Chi Square metric provides a better distinction between low and high doses than the correlation metric, which is not able to distinguish between the low dose and the high dose (see FIG. 6). The low-dose/high dose statistical variation is more pronounced when only the best 2K bands are selected.

band b1i0_60.7 = tested on: band b1i0_60.7
Description: as §1, §2

band b1i0_62.5 = tested on: band b1i0_62.5
Description: as §1, §2

band b1i0_51.7 = tested on: band b1i0_51.7
Description: as §1, §2

band b1i0_63.7 = tested on: band b1i0_63.7
Description: as §1, §2

band b1i0_54.5 = tested on: band b1i0_54.5
Description: as §1, §2

band b1i0_57.4 = tested on: band b1i0_57.4
Description: as §1, §2

band b1i0_69.4 = tested on: band b1i0_69.4
Description: as §1, §2

Compound: O=NN(CCCl)C(=O)NCCCl [BCNU]
- band intensity b1i0_53.0 (band b1i0_53.0; High dose, 1d): 110.8
- band intensity b1i0_53.0 (band b1i0_53.0; High dose, 3d): 118.4
- band intensity b1i0_53.0 (band b1i0_53.0; Low dose, 1d): 117.1
- band intensity b1i0_53.0 (band b1i0_53.0; Low dose, 3d): 98.96
- band intensity b1i0_53.0 (band b1i0_53.0; Low dose, 7d): 104.2
- band intensity b1i0_60.7 (band b1i0_60.7; High dose, 1d): 78.55
- band intensity b1i0_60.7 (band b1i0_60.7; High dose, 3d): 115.4
- band intensity b1i0_60.7 (band b1i0_60.7; Low dose, 1d): 88.97
- band intensity b1i0_60.7 (band b1i0_60.7; Low dose, 3d): 80.09
- band intensity b1i0_60.7 (band b1i0_60.7; Low dose, 7d): 96.79
- band intensity b1i0_62.5 (band b1i0_62.5; High dose, 1d): 67.75
- band intensity b1i0_62.5 (band b1i0_62.5; High dose, 3d): 84.85
- band intensity b1i0_62.5 (band b1i0_62.5; Low dose, 1d): 69.48
- band intensity b1i0_62.5 (band b1i0_62.5; Low dose, 3d): 57.9
- band intensity b1i0_62.5 (band b1i0_62.5; Low dose, 7d): 82.58
- band intensity b1i0_51.7 (band b1i0_51.7; High dose, 1d): 29.61
- band intensity b1i0_51.7 (band b1i0_51.7; High dose, 3d): 30.97
- band intensity b1i0_51.7 (band b1i0_51.7; Low dose, 1d): 24.27
- band intensity b1i0_51.7 (band b1i0_51.7; Low dose, 3d): 21.64
- band intensity b1i0_51.7 (band b1i0_51.7; Low dose, 7d): 19.76
- band intensity b1i0_63.7 (band b1i0_63.7; High dose, 1d): 98.18
- band intensity b1i0_63.7 (band b1i0_63.7; High dose, 3d): 115.1
- band intensity b1i0_63.7 (band b1i0_63.7; Low dose, 1d): 155.4
- band intensity b1i0_63.7 (band b1i0_63.7; Low dose, 3d): 104.2
- band intensity b1i0_63.7 (band b1i0_63.7; Low dose, 7d): 204.2
- band intensity b1i0_54.5 (band b1i0_54.5; High dose, 1d): 112.4
- band intensity b1i0_54.5 (band b1i0_54.5; High dose, 3d): 112.1
- band intensity b1i0_54.5 (band b1i0_54.5; Low dose, 1d): 102.8
- band intensity b1i0_54.5 (band b1i0_54.5; Low dose, 3d): 103.6
- band intensity b1i0_54.5 (band b1i0_54.5; Low dose, 7d): 108.2
- band intensity b1i0_57.4 (band b1i0_57.4; High dose, 1d): 1154
- band intensity b1i0_57.4 (band b1i0_57.4; High dose, 3d): 1296
- band intensity b1i0_57.4 (band b1i0_57.4; Low dose, 1d): 1235
- band intensity b1i0_57.4 (band b1i0_57.4; Low dose, 3d): 1367
- band intensity b1i0_57.4 (band b1i0_57.4; Low dose, 7d): 1345
- band intensity b1i0_69.4 (band b1i0_69.4; High dose, 1d): 194.3
- band intensity b1i0_69.4 (band b1i0_69.4; High dose, 3d): 219.1
- band intensity b1i0_69.4 (band b1i0_69.4; Low dose, 1d): 254
- band intensity b1i0_69.4 (band b1i0_69.4; Low dose, 3d): 292.1
- band intensity b1i0_69.4 (band b1i0_69.4; Low dose, 7d): 325.1

Compound: Dichlorobenzene
- band intensity b1i0_53.0 (band b1i0_53.0; High dose, 1d): 103.4
- band intensity b1i0_53.0 (band b1i0_53.0; High dose, 3d): 48.52
- band intensity b1i0_53.0 (band b1i0_53.0; High dose, 7d): 99.66
- band intensity b1i0_53.0 (band b1i0_53.0; High dose, 14d): 95.42
- band intensity b1i0_53.0 (band b1i0_53.0; Low dose, 1d): 127.1
- band intensity b1i0_53.0 (band b1i0_53.0; Low dose, 3d): 71.53
- band intensity b1i0_53.0 (band b1i0_53.0; Low dose, 7d): 113.8
- band intensity b1i0_53.0 (band b1i0_53.0; Low dose, 14d): 116.4
- band intensity b1i0_60.7 (band b1i0_60.7; High dose, 1d): 79.94
- band intensity b1i0_60.7 (band b1i0_60.7; High dose, 3d): 62.13
- band intensity b1i0_60.7 (band b1i0_60.7; High dose, 7d): 77.87
- band intensity b1i0_60.7 (band b1i0_60.7; High dose, 14d): 82.42
- band intensity b1i0_60.7 (band b1i0_60.7; Low dose, 1d): 95.98
- band intensity b1i0_60.7 (band b1i0_60.7; Low dose, 3d): 58.61
- band intensity b1i0_60.7 (band b1i0_60.7; Low dose, 7d): 74.81
- band intensity b1i0_60.7 (band b1i0_60.7; Low dose, 14d): 94.46
- band intensity b1i0_62.5 (band b1i0_62.5; High dose, 1d): 68.45
- band intensity b1i0_62.5 (band b1i0_62.5; High dose, 3d): 97.82
- band intensity b1i0_62.5 (band b1i0_62.5; High dose, 7d): 76.86
- band intensity b1i0_62.5 (band b1i0_62.5; High dose, 14d): 64.49
- band intensity b1i0_62.5 (band b1i0_62.5; Low dose, 1d): 73.54
- band intensity b1i0_62.5 (band b1i0_62.5; Low dose, 3d): 76.31
- band intensity b1i0_62.5 (band b1i0_62.5; Low dose, 7d): 88.91
- band intensity b1i0_62.5 (band b1i0_62.5; Low dose, 14d): 68.64
- band intensity b1i0_51.7 (band b1i0_51.7; High dose, 1d): 27.84
- band intensity b1i0_51.7 (band b1i0_51.7; High dose, 3d): 10.75
- band intensity b1i0_51.7 (band b1i0_51.7; High dose, 7d): 16.63
- band intensity b1i0_51.7 (band b1i0_51.7; High dose, 14d): 21.77
- band intensity b1i0_51.7 (band b1i0_51.7; Low dose, 1d): 28.93
- band intensity b1i0_51.7 (band b1i0_51.7; Low dose, 3d): 26.06
- band intensity b1i0_51.7 (band b1i0_51.7; Low dose, 7d): 16.57
- band intensity b1i0_51.7 (band b1i0_51.7; Low dose, 14d): 23.43
- band intensity b1i0_63.7 (band b1i0_63.7; High dose, 1d): 129
- band intensity b1i0_63.7 (band b1i0_63.7; High dose, 3d): 5.698
- band intensity b1i0_63.7 (band b1i0_63.7; High dose, 7d): 224.3
- band intensity b1i0_63.7 (band b1i0_63.7; High dose, 14d): 157.7
- band intensity b1i0_63.7 (band b1i0_63.7; Low dose, 1d): 166.2
- band intensity b1i0_63.7 (band b1i0_63.7; Low dose, 3d): 24.94
- band intensity b1i0_63.7 (band b1i0_63.7; Low dose, 7d): 258.8
- band intensity b1i0_63.7 (band b1i0_63.7; Low dose, 14d): 152.1
- band intensity b1i0_54.5 (band b1i0_54.5; High dose, 1d): 91.99
- band intensity b1i0_54.5 (band b1i0_54.5; High dose, 3d): 89.82
- band intensity b1i0_54.5 (band b1i0_54.5; High dose, 7d): 80.92
- band intensity b1i0_54.5 (band b1i0_54.5; High dose, 14d): 84.91
- band intensity b1i0_54.5 (band b1i0_54.5; Low dose, 1d): 88.39
- band intensity b1i0_54.5 (band b1i0_54.5; Low dose, 3d): 128.4
- band intensity b1i0_54.5 (band b1i0_54.5; Low dose, 7d): 88.11
- band intensity b1i0_54.5 (band b1i0_54.5; Low dose, 14d): 101.4
- band intensity b1i0_57.4 (band b1i0_57.4; High dose, 1d): 1260
- band intensity b1i0_57.4 (band b1i0_57.4; High dose, 3d): 1064
- band intensity b1i0_57.4 (band b1i0_57.4; High dose, 7d): 1287
- band intensity b1i0_57.4 (band b1i0_57.4; High dose, 14d): 1142
- band intensity b1i0_57.4 (band b1i0_57.4; Low dose, 1d): 1301
- band intensity b1i0_57.4 (band b1i0_57.4; Low dose, 3d): 1352
- band intensity b1i0_57.4 (band b1i0_57.4; Low dose, 7d): 1298
- band intensity b1i0_57.4 (band b1i0_57.4; Low dose, 14d): 1338
- band intensity b1i0_69.4 (band b1i0_69.4; High dose, 1d): 295.5
- band intensity b1i0_69.4 (band b1i0_69.4; High dose, 3d): 393.2
- band intensity b1i0_69.4 (band b1i0_69.4; High dose, 7d): 261.7
- band intensity b1i0_69.4 (band b1i0_69.4; High dose, 14d): 311.3
- band intensity b1i0_69.4 (band b1i0_69.4; Low dose, 1d): 130.6
- band intensity b1i0_69.4 (band b1i0_69.4; Low dose, 3d): 334.6
- band intensity b1i0_69.4 (band b1i0_69.4; Low dose, 7d): 304.3
- band intensity b1i0_69.4 (band b1i0_69.4; Low dose, 14d): 333.2913
